US20220265834A1, “BCL-2 PROTEIN INHIBITORS” (Recurium IP Holdings, LLC, priority 2019, published 2022)

Tests used:
Type in all cases: cell-based
MOLT-4 cells = experiment: MOLT-4 Cell Proliferation Assay (CellTiter-Glo Luminescent Cell Viability Assay); details: Homo sapiens, 72 h incubation, read-out: MOLT-4 (nM) CTG IC50
Experimental: Cell proliferation was measured using the CellTiter-Glo® Luminescent Cell Viability Assay. The assay involved the addition of a single reagent (CellTiter-Glo® Reagent) directly to cells cultured in serum-supplemented medium. MOLT-4 cells (ATCC, CRL-1582) were cultured according to ATCC recommendations and were seeded at 50,000 cells per well.
Each compound evaluated was prepared as a DMSO stock solution (10 mM). Compounds were tested in duplicate on each plate, with a 10-point serial dilution curve (1:3 dilution). The highest compound concentration was 10 μM (final), with a 0.1% final DMSO concentration. Plates were then incubated at 37° C., 5% CO2 for 72 h, cell plates were equilibrated at rt for approximately 30 mins. An equi-volume amount of CellTiter-Glo® Reagent (100 μL) was added to each well. Plates were mixed for 2 mins on an orbital shaker to induce cell lysis and then incubated at rt for 10 mins to stabilize the luminescent signal. Luminescence was recorded using a Envision plate reader according to CellTiter-Glo protocol. IC50 of each compound was calculated using GraphPad Prism by nonlinear regression analysis.

Bcl-xL [1] = target: T1, Bcl-xL (Homo sapiens, UniProt Q07817); experiment: Protein degradation assay in MOLM-13 cells (Western blot); details: for Bcl-xL degradation in MOLM-13 cells: increasing concentrations, 24 hours, FIG. 6; for Bcl-xL degradation with proteasome inhibitor MG132 in MOLM-13 cells: pretreated with 1 μM MG132 for 1 hour, then 1 μM compound, FIG. 7
Experimental: (§1) MOLT-4 (ATCC, CRL-1582) (FIGS. 4, 5) were incubated with vehicle or 100 nM concentrations of the indicated compounds for 16 hours. MOLM-13 (DSMZ, ACC554) (FIG. 6,7) cells were incubated with vehicle or increasing concentrations of the indicated compound for 24 hours. For proteasome inhibition, MOLM-13 cells were pretreated with 1 μM of MG132 for 1 hour before the addition of 1 μM of the indicated compounds. After treatment, the cells were harvested in RIPA lysis buffer supplemented with 1% Phosphatase Inhibitor and Protease Inhibitor Cocktail. An equal amount of protein (10 μg/lane) from each cell extract was resolved on a 4-12% Bis-Tris gel. Proteins were transferred using iBlot 2 Transfer Stacks. The membranes were blocked with 5% nonfat milk in TBS-T buffer (50 mM Tris-HCL, pH 7.6; 150 mM NaCl; and 0.05% Tween) and probed with primary antibodies (1:1000 dilution) overnight at 4° C. After three washes with TBS-T (10 min/wash), the membranes were incubated with an appropriate peroxidase-conjugated secondary antibody (Cell Signaling Technology, USA) for 1 hour at rt. After three washes with TBS-T, the proteins of interest were detected with ECL Western Blotting Detection Reagents and captured with an Azure imaging system. The band intensities were determined using ImageJ software and normalized to loading control β-actin or GAPDH. The primary antibodies Bcl-xL (#2762), Bcl-2 (#2872s), Mcl-1 (#5453s) and β-actin (13E5, #4970), and GAPDH (#5174) were purchased from Cell Signaling Technology.

Bcl-xL [2] = target: T1, Bcl-xL; experiment: Protein degradation assay in MOLT-4 cells (Western blot); set-up: host or cells: MOLT-4; details: 100 nM compound, 16 hours, FIGS. 4 and 5
Experimental: as §1

T1 sequence (Q07817 whole entry): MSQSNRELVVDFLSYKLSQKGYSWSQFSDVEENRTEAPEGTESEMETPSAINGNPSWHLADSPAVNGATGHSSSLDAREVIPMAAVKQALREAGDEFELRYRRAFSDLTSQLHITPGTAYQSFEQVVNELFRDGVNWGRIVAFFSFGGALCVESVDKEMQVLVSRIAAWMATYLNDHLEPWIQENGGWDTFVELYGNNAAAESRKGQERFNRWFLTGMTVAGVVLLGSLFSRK

SMILES | IC50 (MOLT-4 cells) | Bcl-xL degradation in MOLM-13 cells (Bcl-xL [1]) | Bcl-xL degradation with proteasome inhibitor MG132 in MOLM-13 cells (Bcl-xL [1]) | Bcl-xL degradation in MOLT-4 cells (Bcl-xL [2])
CC1(C)CCC(c2ccc(Cl)cc2)=C(CN2CCN(c3ccc(C(=O)NS(=O)(=O)c4ccc(N[C@H](CCN5CCOCC5)CSc5ccccc5)c(S(=O)(=O)C(F)(F)F)c4)cc3)CC2)C1 [ABT-263, reference compound] | 100 to 200 nM |  |  | 
CC1(C)CCC(CN2CCN(c3ccc(C(=O)NS(=O)(=O)c4ccc(N[C@H](CCN5CCN(C(=O)NCCOCCOCCNc6cccc7c6C(=O)N(C6CCC(=O)NC6=O)C7=O)CC5)CSc5ccccc5)c(S(=O)(=O)C(F)(F)F)c4)cc3)CC2)=C(C23CC(C(F)F)(C2)C3)C1 (stereo partly drawn) [Example 1, 4-((R)-3-((4-(N-(4-(4-((2-(3-(difluoromethyl)bicyclo[1.1.1]pentan-1-yl)-4,4-dimethylcyclohex-1-en-1-yl)methyl)piperazin-1-yl)benzoyl)sulfamoyl)-2-((trifluoromethyl)sulfonyl)phenyl)amino)-4-(phenylthio)butyl)-N-(2-(2-(2-((2-(2,6-dioxopiperidin-3-yl)-1,3-dioxoisoindolin-4-yl)amino)ethoxy)ethoxy)ethyl)piperazine-1-carboxamide] | ≥ 200 nM |  |  | 
CC1(C)CCC(CN2CCN(c3ccc(C(=O)NS(=O)(=O)c4ccc(N[C@H](CCN5CCN(CCOCCNc6cccc7c6C(=O)N(C6CCC(=O)NC6=O)C7=O)CC5)CSc5ccccc5)c(S(=O)(=O)C(F)(F)F)c4)cc3)CC2)=C(C23CC(C(F)F)(C2)C3)C1 (stereo partly drawn) [Example 2, 4-(4-((2-(3-(Difluoromethyl)bicyclo[1.1.1]pentan-1-yl)-4,4-dimethylcyclohex-1-en-1-yl)methyl)piperazin-1-yl)-N-((4-(((2R)-4-(4-(2-(2-((2-(2,6-dioxopiperidin-3-yl)-1,3-dioxoisoindolin-4-yl)amino)ethoxy)ethyl)piperazin-1-yl)-1-(phenylthio)butan-2-yl)amino)-3-((trifluoromethyl)sulfonyl)phenyl)sulfonyl)benzamide] | ≤ 100 nM | can induce Bcl-xL degradation in MOLM-13 cells in a dose dependent manner | can be inhibited by proteasome inhibitor MG132 | induce Bcl-xL degradation
CC1(C)CCC(CN2CCN(c3ccc(C(=O)NS(=O)(=O)c4ccc(N[C@H](CCN5CCN(CCOCCOCCNc6cccc7c6C(=O)N(C6CCC(=O)NC6=O)C7=O)CC5)CSc5ccccc5)c(S(=O)(=O)C(F)(F)F)c4)cc3)CC2)=C(C23CC(C(F)F)(C2)C3)C1 (stereo partly shown) [Example 3] |  | can induce Bcl-xL degradation in MOLM-13 cells in a dose dependent manner | can be inhibited by proteasome inhibitor MG132 | 
CC1(C)CCC(CN2CCN(c3ccc(C(=O)NS(=O)(=O)c4ccc(N[C@H](CCN5CCN(CCOCCOCCOCCNc6cccc7c6C(=O)N(C6CCC(=O)NC6=O)C7=O)CC5)CSc5ccccc5)c(S(=O)(=O)C(F)(F)F)c4)cc3)CC2)=C(C23CC(C(F)F)(C2)C3)C1 (stereo partly drawn) [Example 4, 4-(4-((2-(3-(difluoromethyl)bicyclo[1.1.1]pentan-1-yl)-4,4-dimethylcyclohex-1-en-1-yl)methyl)piperazin-1-yl)-N-((4-(((2R)-4-(4-(2-(2-(2-(2-((2-(2,6-dioxopiperidin-3-yl)-1,3-dioxoisoindolin-4-yl)amino)ethoxy)ethoxy)ethoxy)ethyl)piperazin-1-yl)-1-(phenylthio)butan-2-yl)amino)-3-((trifluoromethyl)sulfonyl)phenyl)sulfonyl)benzamide] | ≤ 100 nM |  | can be inhibited by proteasome inhibitor MG132 | induce Bcl-xL degradation
CC1(C)CCC(CN2CCN(c3ccc(C(=O)NS(=O)(=O)c4ccc(N[C@H](CCN5CCC(C(=O)NCCOCCOCCNc6cccc7c6C(=O)N(C6CCC(=O)NC6=O)C7=O)CC5)CSc5ccccc5)c(S(=O)(=O)C(F)(F)F)c4)cc3)CC2)=C(C23CC(C(F)F)(C2)C3)C1 (stereo partly drawn) [Example 5, 1-((R)-3-((4-(N-(4-(4-((2-(3-(difluoromethyl)bicyclo[1.1.1]pentan-1-yl)-4,4-dimethylcyclohex-1-en-1-yl)methyl)piperazin-1-yl)benzoyl)sulfamoyl)-2-((trifluoromethyl)sulfonyl)phenyl)amino)-4-(phenylthio)butyl)-N-(2-(2-(2-((2-(2,6-dioxopiperidin-3-yl)-1,3-dioxoisoindolin-4-yl)amino)ethoxy)ethoxy)ethyl)piperidine-4-carboxamide] | 100 to 200 nM |  |  | induce Bcl-xL degradation
CC1(C)CCC(CN2CCN(c3ccc(C(=O)NS(=O)(=O)c4ccc(N[C@H](CCN5CCN(CCOCCNc6ccc7c(c6)C(=O)N(C6CCC(=O)NC6=O)C7=O)CC5)CSc5ccccc5)c(S(=O)(=O)C(F)(F)F)c4)cc3)CC2)=C(C23CC(C(F)F)(C2)C3)C1 (stereo partly drawn) [Example 6, 4-(4-((2-(3-(Difluoromethyl)bicyclo[1.1.1]pentan-1-yl)-4,4-dimethylcyclohex-1-en-1-yl)methyl)piperazin-1-yl)-N-((4-(((2R)-4-(4-(2-(2-((2-(2,6-dioxopiperidin-3-yl)-1,3-dioxoisoindolin-5-yl)amino)ethoxy)ethyl)piperazin-1-yl)-1-(phenylthio)butan-2-yl)amino)-3-((trifluoromethyl)sulfonyl)phenyl)sulfonyl)benzamide] | ≤ 100 nM |  |  | induce Bcl-xL degradation
CC1(C)CCC(CN2CCN(c3ccc(C(=O)NS(=O)(=O)c4ccc(N[C@H](CCN5CCN(CCOCCNc6cccc7c6C(=O)N(C6CCC(=O)NC6=O)C7=O)CC5)CSc5ccccc5)c(S(=O)(=O)C(F)(F)F)c4)cc3)CC2)=C(C23CC(C)(C2)C3)C1 (stereo partly drawn) [Example 9, 4-(4-((4,4-Dimethyl-2-(3-methylbicyclo[1.1.1]pentan-1-yl)cyclohex-1-en-1-yl)methyl)piperazin-1-yl)-N-((4-(((2R)-4-(4-(2-(2-((2-(2,6-dioxopiperidin-3-yl)-1,3-dioxoisoindolin-4-yl)amino)ethoxy)ethyl)piperazin-1-yl)-1-(phenylthio)butan-2-yl)amino)-3-((trifluoromethyl)sulfonyl)phenyl)sulfonyl)benzamide] | ≤ 100 nM |  |  | induce Bcl-xL degradation
CC1(C)CCC(CN2CCN(c3ccc(C(=O)NS(=O)(=O)c4ccc(N[C@H](CCN5CCN(CCOCCOCCOCCNc6cccc7c6C(=O)N(C6CCC(=O)NC6=O)C7=O)CC5)CSc5ccccc5)c(S(=O)(=O)C(F)(F)F)c4)cc3)CC2)=C(C23CC(C)(C2)C3)C1 (stereo partly drawn) [Example 10, 4-(4-((4,4-dimethyl-2-(3-methylbicyclo[1.1.1]pentan-1-yl)cyclohex-1-en-1-yl)methyl)piperazin-1-yl)-N-((4-(((2R)-4-(4-(2-(2-(2-(2-((2-(2,6-dioxopiperidin-3-yl)-1,3-dioxoisoindolin-4-yl)amino)ethoxy)ethoxy)ethoxy)ethyl)piperazin-1-yl)-1-(phenylthio)butan-2-yl)amino)-3-((trifluoromethyl)sulfonyl)phenyl)sulfonyl)benzamide] | ≤ 100 nM |  |  | induce Bcl-xL degradation
